Laboratory results as given in ChEMBL document CHEMBL3868599, “Strategy for designing selective α-l-rhamnosidase inhibitors: Synthesis and biological evaluation of l-DMDP cyclic isothioureas” (Bioorg Med Chem, 2017).

Assays:
[1] = molecular target: T1, Uncharacterized protein (Sus scrofa) (UniProt I3LIR5); test: Inhibition of porcine kidney trehalase assessed as D-glucose level at 100 uM using maltose as substrate measured after 10 to 30 mins
T1 sequence (whole entry): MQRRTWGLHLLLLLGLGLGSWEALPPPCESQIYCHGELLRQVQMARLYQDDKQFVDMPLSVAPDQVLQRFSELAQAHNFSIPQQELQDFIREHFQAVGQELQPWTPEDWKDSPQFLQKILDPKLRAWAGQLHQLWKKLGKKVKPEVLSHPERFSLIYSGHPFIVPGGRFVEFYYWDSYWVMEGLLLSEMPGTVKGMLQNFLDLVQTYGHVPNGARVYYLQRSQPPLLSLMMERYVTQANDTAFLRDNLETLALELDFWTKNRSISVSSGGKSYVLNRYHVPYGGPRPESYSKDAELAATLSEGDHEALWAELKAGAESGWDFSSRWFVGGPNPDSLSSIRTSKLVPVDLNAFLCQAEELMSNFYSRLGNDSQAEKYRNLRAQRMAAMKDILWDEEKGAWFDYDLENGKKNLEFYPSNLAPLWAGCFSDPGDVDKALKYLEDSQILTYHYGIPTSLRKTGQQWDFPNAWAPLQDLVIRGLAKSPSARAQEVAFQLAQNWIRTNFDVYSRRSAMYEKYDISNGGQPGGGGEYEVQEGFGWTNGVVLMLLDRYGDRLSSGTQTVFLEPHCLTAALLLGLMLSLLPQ

Prunus dulcis [2] = test: Inhibition of almond beta-glucosidase at 100 uM using p-nitrophenyl-glycoside as substrate by spectrophotometric method
Penicillium decumbens = test: Inhibition of Penicillium decumbens alpha-L-rhamnosidase at 100 uM using p-nitrophenyl-glycoside as substrate by spectrophotometric method
Beta-galactosidase = molecular target: T2, Beta-galactosidase (Bos taurus, UniProt Q58D55); test: Inhibition of bovine liver beta-galactosidase using p-nitrophenyl-glycoside as substrate by spectrophotometric method
T2 sequence (Q58D55 whole entry): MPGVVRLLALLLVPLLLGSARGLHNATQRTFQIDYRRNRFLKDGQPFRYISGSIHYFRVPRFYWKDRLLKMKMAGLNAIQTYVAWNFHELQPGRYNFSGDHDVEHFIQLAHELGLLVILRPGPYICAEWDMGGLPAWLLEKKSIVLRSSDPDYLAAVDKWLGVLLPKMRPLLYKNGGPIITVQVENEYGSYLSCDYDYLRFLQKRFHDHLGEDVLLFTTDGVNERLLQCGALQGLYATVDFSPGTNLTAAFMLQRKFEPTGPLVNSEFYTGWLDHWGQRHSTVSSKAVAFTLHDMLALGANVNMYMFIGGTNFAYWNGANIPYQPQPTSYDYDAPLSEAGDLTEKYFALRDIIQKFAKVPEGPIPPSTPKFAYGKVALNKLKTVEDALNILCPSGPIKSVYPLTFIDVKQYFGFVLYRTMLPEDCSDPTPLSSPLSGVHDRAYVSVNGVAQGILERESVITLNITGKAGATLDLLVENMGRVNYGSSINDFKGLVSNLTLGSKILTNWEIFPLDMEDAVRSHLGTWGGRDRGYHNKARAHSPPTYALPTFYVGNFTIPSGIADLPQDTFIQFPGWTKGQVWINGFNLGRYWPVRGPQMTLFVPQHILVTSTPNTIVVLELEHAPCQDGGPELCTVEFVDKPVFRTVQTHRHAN

Rattus norvegicus [3] = species: Rattus norvegicus; test: Inhibition of rat intestinal maltase assessed as D-glucose level at 100 uM using maltose as substrate measured after 10 to 30 mins
[4] = molecular target: T3, Tissue alpha-L-fucosidase (Bos taurus) (UniProt Q2KIM0); test: Inhibition of bovine kidney alpha-L-fucosidase at 100 uM using p-nitrophenyl-glycoside as substrate by spectrophotometric method
T3 sequence (whole entry): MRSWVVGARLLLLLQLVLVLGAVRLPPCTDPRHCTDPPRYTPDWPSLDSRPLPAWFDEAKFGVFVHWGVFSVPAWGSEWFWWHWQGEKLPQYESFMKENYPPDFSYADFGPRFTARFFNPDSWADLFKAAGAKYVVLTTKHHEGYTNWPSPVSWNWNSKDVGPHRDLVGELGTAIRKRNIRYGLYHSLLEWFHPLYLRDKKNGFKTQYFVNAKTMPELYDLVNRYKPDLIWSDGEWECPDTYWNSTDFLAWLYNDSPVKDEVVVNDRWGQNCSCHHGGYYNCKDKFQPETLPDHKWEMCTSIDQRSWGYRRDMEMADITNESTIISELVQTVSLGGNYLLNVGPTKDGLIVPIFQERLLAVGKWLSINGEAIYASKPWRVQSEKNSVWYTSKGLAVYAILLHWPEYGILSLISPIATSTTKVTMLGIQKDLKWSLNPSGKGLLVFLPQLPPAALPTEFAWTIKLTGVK

Oryza sativa = test: Inhibition of rice alpha-glucosidase at 100 uM using p-nitrophenyl-glycoside as substrate by spectrophotometric method
Bos taurus [5] = species: Bos taurus; test: Inhibition of bovine liver beta-glucosidase at 100 uM using p-nitrophenyl-glycoside as substrate by spectrophotometric method
Escherichia coli [6] = test: Inhibition of Escherichia coli beta-glucuronidase at 100 uM using p-nitrophenyl-glycoside as substrate by spectrophotometric method
[7] = Inhibition of human lysosomal beta-glucosidase using 4-methylumbelliferyl-beta-D-glucopyranoside as substrate preincubated for 45 mins followed by substrate addition measured after 30 mins by fluorescence spectrophotometric method
Aspergillus niger [8] = test: Inhibition of Aspergillus niger amyloglucosidase assessed as D-glucose level at 100 uM using maltose as substrate measured after 10 to 30 mins
[9] = Inhibition of bovine liver beta-glucosidase using p-nitrophenyl-glycoside as substrate by spectrophotometric method; set-up: species or system Bos taurus
Bos taurus [10] = species: Bos taurus; test: Inhibition of bovine liver beta-glucosidase at 1000 uM using p-nitrophenyl-glycoside as substrate by spectrophotometric method
Aspergillus niger [11] = test: Inhibition of Aspergillus niger amyloglucosidase assessed as D-glucose level at 1000 uM using maltose as substrate measured after 10 to 30 mins
[12] = molecular target: T1, Uncharacterized protein (Sus scrofa); test: Inhibition of porcine kidney trehalase assessed as D-glucose level at 1000 uM using maltose as substrate measured after 10 to 30 mins
Homo sapiens [13] = species: Homo sapiens; test: Inhibition of human lysosomal beta-glucosidase at 1000 uM using 4-methylumbelliferyl-beta-D-glucopyranoside as substrate preincubated for 45 mins followed by substrate addition measured after 30 mins by fluorescence spectrophotometric method
Rattus norvegicus [14] = species: Rattus norvegicus; test: Inhibition of rat intestinal maltase assessed as D-glucose level at 1000 uM using maltose as substrate measured after 10 to 30 mins
[15] = Inhibition of Penicillium decumbens alpha-L-rhamnosidase using p-nitrophenyl-glycoside as substrate by spectrophotometric method
Prunus dulcis [16] = test: Inhibition of almond beta-glucosidase at 1000 uM using p-nitrophenyl-glycoside as substrate by spectrophotometric method
[17] = Inhibition of rice alpha-glucosidase using p-nitrophenyl-glycoside as substrate by spectrophotometric method; set-up: species or system Oryza sativa
Escherichia coli [18] = test: Inhibition of Escherichia coli beta-glucuronidase at 1000 uM using p-nitrophenyl-glycoside as substrate by spectrophotometric method
[19] = molecular target: T3, Tissue alpha-L-fucosidase (Bos taurus); test: Inhibition of bovine kidney alpha-L-fucosidase at 1000 uM using p-nitrophenyl-glycoside as substrate by spectrophotometric method
[20] = molecular target: T4, Beta-galactosidase (Bos taurus) (UniProt Q58D55); test: Inhibition of bovine liver beta-galactosidase at 100 uM using p-nitrophenyl-glycoside as substrate by spectrophotometric method
T4 sequence (whole entry): T2 sequence (Q58D55 whole entry)

Homo sapiens [21] = species: Homo sapiens; test: Inhibition of human lysosomal beta-glucosidase at 100 uM using 4-methylumbelliferyl-beta-D-glucopyranoside as substrate preincubated for 45 mins followed by substrate addition measured after 30 mins by fluorescence spectrophotometric method

Row | SMILES | inhibition [1] | inhibition (Prunus dulcis [2]) | inhibition (Penicillium decumbens) | IC50 (Beta-galactosidase) | inhibition (Rattus norvegicus [3]) | inhibition [4] | inhibition (Oryza sativa) | inhibition (Bos taurus [5]) | inhibition (Escherichia coli [6]) | IC50 [7] | inhibition (Aspergillus niger [8]) | IC50 [9] | IC50 [15] | inhibition [20] | inhibition (Homo sapiens [21]) | other results
1 | CCCCCCCCCCNC(=S)N1[C@H](CO)[C@@H](O)[C@H](O)[C@H]1CO | < 50% | < 50% | < 50% | 100 µM | < 50% | < 50% | < 50% | < 50% | < 50% | 0.74 µM | < 50% |  |  |  |  | 
2 | CCCCCCCCCC/N=C1/SC[C@@H]2[C@@H](O)[C@H](O)[C@@H](CO)N12 | < 50% | < 50% | < 50% | 93 µM | < 50% | < 50% | < 50% |  | < 50% | 1 µM | < 50% | 63 µM |  |  |  | 
3 | CCCC/N=C1/SC[C@H]2[C@H](O)[C@@H](O)[C@H](CO)N12 |  |  |  | 719 µM |  |  |  |  |  |  |  |  | 37 µM |  |  | inhibition (Bos taurus [10]): < 50%; inhibition (Aspergillus niger [11]): < 50%; inhibition [12]: < 50%; inhibition (Homo sapiens [13]): < 50%; inhibition (Rattus norvegicus [14]): < 50%; inhibition (Prunus dulcis [16]): < 50%; IC50 [17]: 339 µM; inhibition (Escherichia coli [18]): < 50%; inhibition [19]: < 50%
4 | OC[C@H]1[C@H](O)[C@@H](O)[C@@H]2CS/C(=N/CCCCCc3ccccc3)N12 | < 50% | < 50% |  |  | < 50% | < 50% | < 50% | < 50% | < 50% |  | < 50% |  | 1.8 µM | < 50% | < 50% | 
5 | CCCCCCCCCCCCNC(=S)N1[C@@H](CO)[C@H](O)[C@@H](O)[C@@H]1CO | < 50% | < 50% | < 50% | 30 µM | < 50% | < 50% | < 50% |  | < 50% | 73 µM | < 50% | 36 µM |  |  |  | 
6 | OC[C@H]1[C@H](O)[C@@H](O)[C@@H]2CS/C(=N/CCCc3ccccc3)N12 | < 50% | < 50% |  |  | < 50% | < 50% | < 50% | < 50% | < 50% |  | < 50% |  | 6.8 µM | < 50% | < 50% | 
7 | OC[C@H]1[C@H](O)[C@@H](O)[C@@H]2CS/C(=N/Cc3ccccc3)N12 | < 50% | < 50% |  |  | < 50% | < 50% | < 50% | < 50% | < 50% |  | < 50% |  | 2.2 µM | < 50% | < 50% | 
8 | OC[C@H]1[C@H](O)[C@@H](O)[C@@H]2CS/C(=N/CCCCCCCc3ccccc3)N12 | < 50% | < 50% |  |  | < 50% | < 50% | < 50% | < 50% | < 50% |  | < 50% |  | 1 µM | < 50% | < 50% | 
9 | CCCCCCCCCCNC(=S)N1[C@@H](CO)[C@H](O)[C@@H](O)[C@@H]1CO | < 50% | < 50% | < 50% | 61 µM | < 50% | < 50% | < 50% |  | < 50% | 65 µM | < 50% | 16 µM |  |  |  | 
